Test [1] concerns Triticum aestivum variety “AC Harvest”. The experiment in a line: Growth chamber trial, post-emergence spray application, grain yield at full maturity. It is filed as in vivo. To be noted: single active ingredient, dose rate 10 g ai/ha; for change in vivo at 10 g/ha / response vs control in vivo at 10 g/ha: Triticum aestivum, post-emergence; for change in vivo at 10 g/ha: grain yield difference, read-out: Difference (%) vs. UTC; for response vs control in vivo at 10 g/ha: grain yield relative to UTC (100.0); for Grain Yield, g/plant: spray at BBCH 56-61, slightly reduced water, average of five replicates.

Test [2] concerns Triiticum aestivum seeds (TRZAS). Put plainly: Seed treatment trial, grain yield. Format: in vivo, Triticum aestivum. The settings on record: for Difference (%) vs. UTC: grain yield difference; for Relative, %: grain yield relative to UTC (100.0).
Setting [3] is: single active ingredient, 1 g ai/kg seed.

For `CN/C(=N\[N+](=O)[O-])NCc1cnc(Cl)s1` [Clothianidin (I-3), clothianidin], in test [1], the change in vivo at 10 g/ha stood at 12.3% and the response vs control in vivo at 10 g/ha came out at 112%.

As to `OC(Cc1ccccc1Cl)(Cn1nc[nH]c1=S)C1(Cl)CC1` (centres unmarked) [Prothioconazole (F-124), prothioconazole], in test [1], the change in vivo at 10 g/ha is -3.8% and the response vs control in vivo at 10 g/ha is 96.2%.

Turning to `O=[N+]([O-])NC1=NCCN1Cc1ccc(Cl)nc1` [Imidacloprid (I-11), imidacloprid], in test [1], the change in vivo at 10 g/ha came out at 7.5% and the response vs control in vivo at 10 g/ha turned out to be 108%.

With `N#Cc1nn(-c2c(Cl)cc(C(F)(F)F)cc2Cl)c(N)c1[S+]([O-])C(F)(F)F` (centres unmarked) [Fipronil (I-8), fipronil], in test [1], the change in vivo at 10 g/ha was found to be 12.3% and the response vs control in vivo at 10 g/ha is 112%.

With `CNC(=O)Nc1ccc(S(=O)(=O)NC(=O)c2ccccc2OC)cc1` [Compound (A1), N-(2-methoxybenzoyl)-4-[(methylaminocarbonyl)amino]benzenesulfonamide], the change in vivo at 10 g/ha in test [1] turned out to be 12.3%. In test [1], the response vs control in vivo at 10 g/ha is 112%. In addition, the “Grain Yield, g/plant” value in test [1] was 1.19 g/plant; in test [2] (dose rate 0.5 g ai/kg seed) it was 1.90 g/plant; in test [2] (single active ingredient, dose rate 1 g ai/kg seed) it was 1.87 g/plant. For the same compound, the “Difference (%) vs. UTC” value in test [2] (0.5 g ai/kg seed) was “+5.6%”; in test [2] (setting [3]), “+3.9%”. Besides, the “Relative, %” value is 105.6% in test [2] (0.5 g ai/kg seed) and 103.9% in test [2] (setting [3]).

In the case of `CC1COC(Cn2cncn2)(c2ccc(Oc3ccc(Cl)cc3)cc2Cl)O1` (centres unmarked) [Difenoconazole (F-105), difenoconazole], in test [1], the change in vivo at 10 g/ha was -3.8% and the response vs control in vivo at 10 g/ha amounted to 96.2%.

Consider `COC(=O)N(OC)c1ccccc1COc1ccn(-c2ccc(Cl)cc2)n1` [Pyraclostrobin (F-57), pyraclostrobin], for which, in test [1], the change in vivo at 10 g/ha is 17% and the response vs control in vivo at 10 g/ha amounted to 117%.

Consider `CN1COCN(Cc2cnc(Cl)s2)/C1=N\[N+](=O)[O-]` [Thiamethoxam (I-19), thiamethoxam], for which, in test [1], the change in vivo at 10 g/ha came out at 22.6%; the response vs control in vivo at 10 g/ha came out at 123%; the “Grain Yield, g/plant” value is listed as 1.30 g/plant.

As for `CON=C(C(=O)OC)c1ccccc1CON=C(C)c1cccc(C(F)(F)F)c1` [Trifloxystrobin (F-60), trifloxystrobin], in test [1], the change in vivo at 10 g/ha was 5.7% and the response vs control in vivo at 10 g/ha was 106%.
